Data taken from patent US9387246B2, “Treatment methods for rheumatoid arthritis” (priority 2013, dated 2016).
Each block holds one molecule with its values, some of them ahead of it.

Assays:
[1] = test system: Rheumatoid arthritis patients; assay: Treatment outcome (effectiveness, clinical course) of treatment methods (Example 2); type: in vivo, human
Protocol: (§1) The patients were treated with the selected treatment methods for at least five months and the post-treatment biomarker levels and VECTRA DA Score were determined by VECTRA® DA test along with CRP level and ESR. The change is VECTRA DA Score, CRP level and ESR was determined to determine the change in disease activity and effectiveness of the selected treatment method.

[2] = test system: Rheumatoid arthritis patients; assay: Change in VECTRA DA Score after treatment, longer duration (Example 3); type: in vivo, human
Protocol: Sixteen rheumatoid arthritis patients were selected for treatment by treatment methods that were selected using the algorithm disclosed herein. Some patients were the same as the patients discussed under Example 2. Example 3, however, tracks patients' responses to treatment for a longer duration and uses VECTRA DA Score to determine effectiveness of the treatment.
VECTRA® DA test was conducted for each patient to determine serum levels of the all the biomarkers and VECTRA DA Score in each patient before treatment. The collection of patients closely resembles the random patient population available nationwide as shown by a comparison of the distribution of VECTRA DA Scores in FIG. 6, as noted under Example 2.
The patients were treated with the selected treatment methods and the post-treatment biomarker levels and VECTRA DA Score were determined by VECTRA® DA test. The change is VECTRA DA Score was determined to determine the change in disease activity and effectiveness of the selected treatment method.
The treatment method (one method or a combination of methods) was determined to be effective when the post-treatment disease activity was lower than the pre-treatment disease activity in the patient: when VECTRA DA Score was lower than the pre-treatment VECTRA DA Score. Specifically, the treatment method was determined to be effective when the post-treatment disease activity was at least 20% lower than the pre-treatment disease activity, or when the VECTRA DA Score is decreased to a lower disease activity level after the treatment (i.e., from high to moderate, or high to low, or moderate to low).

[3] = test system: Rheumatoid arthritis patients; type: in vivo, human; conditions: for Treatment effectiveness (reason for discontinuation / earlier trial): patient 16, January 2014
Source text: A treatment method administered to a patient may be a combination of one or more treatment methods.

[4] = test system: Rheumatoid arthritis patients; assay: VECTRA DA test: serum levels of biomarkers, % elevation over control (InFoRM study); type: in vivo, human
Source text: (§2) VECTRA® DA test is a multi-biomarker disease activity (MBDA) blood test sold by Crescendo Bioscience. The test provides a quantitative assessment of rheumatoid arthritis disease activity in patients by using twelve protein biomarkers—Vascular Cell Adhesion Molecule 1 (VCAM-1), Epidermal Growth Factor (EGF), Vascular Endothelial Growth Factor A (VEGF-A), Interleukin-6 (IL-6), Tumor Necrosis Factor Receptor Type 1 (TNFR1), Matrix Metalloproteinase-1 (MMP-1), Matrix Metalloproteinase-3 (MMP-3), YKL-40, Leptin, Resistin, Serum Amyloid A (SAA), and C-Reactive Protein (CRP). The twelve biomarkers in VECTRA® DA test are relevant to key aspects of the pathophysiology of RA. Li et al., Curr. Med. Res. & Opin. 29(1): 85-92 (2013). The test measures the concentrations of the biomarkers and provides the concentrations and percentile (RA percentile) value for each biomarker.
The VECTRA DA MBDA test uses Meso Scale Discovery (MSD, Gaithersburg, Md., USA) sandwich immunoassay electrochemiluminescent technology to measure biomarker levels. Eastman et al., J. of Pharmaceutical and Biomedical Analysis 70: 415-424 (2012). In the immunoassay, capture antibodies are spotted on carbon electrodes in a planar array and detection antibodies are labeled with an electrochemiluminescent ruthenium reporter. Id. Upon electrical stimulation, light is produced from reporter molecules bound to the electrode to determine biomarker concentration.

VCAM-1 = conditions: literature 1990-2012, ACR abstracts 2006-2013; cited from earlier work
IL-6 = conditions: literature 1990-2012, ACR abstracts 2006-2013; cited from earlier work
TNFR1 = test system: TNFR1; parameters: key: Y: biomarkers that are known to be positively affected by a treatment method (i.e., biomarkers that are known to have a favorable response to a treatment method); N: biomarkers that are not known to be positively affected by a treatment method (i.e., biomarkers that are known to have an unfavorable response to a treatment method); biomarkers that are known to be positively affected by a ORENCIA, the brand name of Atabacept; conditions: literature 1990-2012, ACR abstracts 2006-2013; cited from earlier work
MMP-1 = conditions: literature 1990-2012, ACR abstracts 2006-2013; cited from earlier work
MMP-3 = conditions: literature 1990-2012, ACR abstracts 2006-2013; cited from earlier work
Resistin = conditions: literature 1990-2012, ACR abstracts 2006-2013; cited from earlier work
SAA = conditions: literature 1990-2012, ACR abstracts 2006-2013; cited from earlier work
VEGF-A = conditions: literature 1990-2012, ACR abstracts 2006-2013; cited from earlier work
YKL-40 = conditions: literature 1990-2012, ACR abstracts 2006-2013; cited from earlier work
Leptin = conditions: literature; Leptin usable as biomarker only in patients with 15% or less body fat; cited from earlier work
CRP = conditions: literature 1990-2012, ACR abstracts 2006-2013; cited from earlier work
[5] = test system: Rheumatoid arthritis patients; assay: Change in VECTRA DA Score after treatment (Example 2); type: in vivo, human; conditions: Patient 10; treatment December 2012-June 2013; score May 2013
Source text: as §2, with “biomarker. […]” for “biomarker.”
as §1

[6] = Patient 6, outcome not reflected by change in any of the three disease markers, earlier treatments not algorithm-selected
[7] = Patient 10, MTX (November 2011) and ORENCIA (August-December 2012) not algorithm-selected, HUMIRA December 2012-June 2013, based on VECTRA DA Score

WBC count relative to normal (reason for discontinuation) ([3]; in vivo): due to below
Molecule: Cc1oncc1C(=O)Nc1ccc(C(F)(F)F)cc1 [ARA, Leflunomide]
Treatment Outcome [1, 6]: (after failing
Arthritis activity class of VECTRA DA Score ([2]; Patient 6, March 2012): high (a VECTRA DA Score of >44 reflects high disease activity)
VECTRA DA Score ([2]; Patient 6, March 2012): 74
Patient could tolerate the drug in the past ([3]; in vivo): Patient could not
Toxicity for which the treatment was discontinued ([3]; in vivo): to bone marrow
CRP elevated level ([4]; Patient 6, March 2012): 93%
IL-6 elevated level ([4]; Patient 6, March 2012): 98%
Leptin elevated level ([4]; Patient 6, March 2012): 90%
MMP-1 elevated level ([4]; Patient 6, March 2012): 40%
MMP-3 elevated level ([4]; Patient 6, March 2012): 91%
Resistin elevated level ([4]; Patient 6, March 2012): 63%
SAA elevated level ([4]; Patient 6, March 2012): 97%
TNF-R1 elevated level ([4]; Patient 6, March 2012): 73%
VCAM-1 elevated level ([4]; Patient 6, March 2012): 85%
VEGF-A elevated level ([4]; Patient 6, March 2012): 84%
YKL-40 elevated level ([4]; Patient 6, March 2012): 41%
VCAM-1 positively affected by treatment method (VCAM-1): Y
IL-6 positively affected by treatment method (IL-6): Y
TNFR1 positively affected by treatment method (TNFR1): Y
MMP-1 positively affected by treatment method (MMP-1): Y
MMP-3 positively affected by treatment method (MMP-3): Y
Resistin positively affected by treatment method (Resistin): N
SAA positively affected by treatment method (SAA): Y

Molecule: Cn1cnc([N+](=O)[O-])c1Sc1ncnc2nc[nH]c12 [Azathioprine (AZA), Azathioprine]
Treatment Outcome [1, 6]: (after failing
Treatment Outcome ([1]; Patient 16, AZA from March 2012, triple therapy with CIMZIA from May 2012, based on VECTRA DA score): Not effective
Treatment effectiveness (reason for discontinuation / earlier trial) [3]: to inefficacy

Molecule: CN(Cc1cnc2nc(N)nc(N)c2n1)c1ccc(C(=O)N[C@@H](CCC(=O)O)C(=O)O)cc1 [MTX, Methotrexate]
Treatment Outcome ([1]; Patient 5, MTX alone from March 2012 not algorithm-selected, MTX and CIMZIA October 2012-June 2013, based on Sedimentation Rate and CRP Level): Not effective
Treatment Outcome ([1]; Patient 8, MTX not algorithm-selected, ORENCIA December 2012-June 2013, based on VECTRA DA score): Not effective
Treatment Outcome ([1]; Patient 9, ACTEMRA from May 2012 not algorithm-selected, MTX added October 2012, based on ESR and CRP level): Effective,
Treatment Outcome [1, 7]: Not effective
Arthritis activity class of VECTRA DA Score ([2]; Patient 5, August 2012): high (a VECTRA DA Score of >44 reflects high disease activity)
VECTRA DA Score increased by ([2]; Patient 5, August 2012 since March 2012 (5 months treatment only)): by 7 since
Arthritis activity class of VECTRA DA Score ([2]; Patient 10, April 2012): (moderate) (a VECTRA DA Score of >29 and ≦44 reflects moderate disease activity)
VECTRA DA Score ([2]; Patient 10, April 2012, Methotrexate 10 mg/week): Score: 33
Adverse event for which dose was reduced to 10 mg/week ([3]; human, in vivo): hair loss, April 2014
Treatment effectiveness (reason for discontinuation / earlier trial) [3]: without success
CRP elevated level ([4]; Patient 5, August 2012): 67%
IL-6 elevated level ([4]; Patient 5, August 2012): 79%
Leptin elevated level ([4]; Patient 5, August 2012): 97%
MMP-1 elevated level ([4]; Patient 5, August 2012): 79%
MMP-3 elevated level ([4]; Patient 5, August 2012): 95%
Resistin elevated level ([4]; Patient 5, August 2012): 82%
SAA elevated level ([4]; Patient 5, August 2012): 92%
TNF-R1 elevated level ([4]; Patient 5, August 2012): 79%
VCAM-1 elevated level ([4]; Patient 5, August 2012): 97%
VEGF-A elevated level ([4]; Patient 5, August 2012): 48%
YKL-40 elevated level ([4]; Patient 5, August 2012): 94%
SAA elevated level ([4]; Patient 10, April 2012): 65%
VEGF-A elevated level ([4]; Patient 10, April 2012): 59%
YKL-40 elevated level ([4]; Patient 10, April 2012): 72%
VCAM-1 positively affected by treatment method (VCAM-1): N
VEGF-A positively affected by treatment method (VEGF-A): Y
IL-6 positively affected by treatment method (IL-6): Y
TNFR1 positively affected by treatment method (TNFR1): N
MMP-1 positively affected by treatment method (MMP-1): N
MMP-3 positively affected by treatment method (MMP-3): Y
YKL-40 positively affected by treatment method (YKL-40): N
Leptin positively affected by treatment method (Leptin): N
Resistin positively affected by treatment method (Resistin): N
SAA positively affected by treatment method (SAA): Y
CRP positively affected by treatment method (CRP): Y

Molecule: CCN(CCO)CCCC(C)Nc1ccnc2cc(Cl)ccc12 (centres unmarked) [P, Hydroxychloroquine]
VCAM-1 positively affected by treatment method (VCAM-1): N
VEGF-A positively affected by treatment method (VEGF-A): N
IL-6 positively affected by treatment method (IL-6): Y
TNFR1 positively affected by treatment method (TNFR1): N
MMP-1 positively affected by treatment method (MMP-1): N
MMP-3 positively affected by treatment method (MMP-3): N
YKL-40 positively affected by treatment method (YKL-40): N
Resistin positively affected by treatment method (Resistin): N
SAA positively affected by treatment method (SAA): Y
CRP positively affected by treatment method (CRP): Y

Molecule: O=C(O)c1cc(/N=N/c2ccc(S(=O)(=O)Nc3ccccn3)cc2)ccc1O [S, Sulfasalazine]
VEGF-A positively affected by treatment method (VEGF-A): Y
IL-6 positively affected by treatment method (IL-6): Y
TNFR1 positively affected by treatment method (TNFR1): Y
MMP-3 positively affected by treatment method (MMP-3): Y
YKL-40 positively affected by treatment method (YKL-40): N
Leptin positively affected by treatment method (Leptin): N
Resistin positively affected by treatment method (Resistin): N
SAA positively affected by treatment method (SAA): Y
CRP positively affected by treatment method (CRP): Y

Molecule: C[C@@H]1CCN(C(=O)CC#N)C[C@@H]1N(C)c1ncnc2[nH]ccc12 [TOFAC, Tofacitinib]
Tapering of oral steroid, Prednisone ([3]; patient 16, XELJANZ 5 mg twice a day added March 2014): XELJANZ allowed
IL-6 positively affected by treatment method (IL-6): Y
MMP-1 positively affected by treatment method (MMP-1): Y
MMP-3 positively affected by treatment method (MMP-3): Y

Molecule: Adalimumab [HUMIRA (TNF)]
VECTRA DA Score - Decreased by [5]: Decreased by 22
Treatment Outcome [1, 7]: Effective,

Molecule: Rituximab
VCAM-1 positively affected by treatment method (VCAM-1): N
IL-6 positively affected by treatment method (IL-6): Y
MMP-1 positively affected by treatment method (MMP-1): N
MMP-3 positively affected by treatment method (MMP-3): N
YKL-40 positively affected by treatment method (YKL-40): N
Leptin positively affected by treatment method (Leptin): N
Resistin positively affected by treatment method (Resistin): N
SAA positively affected by treatment method (SAA): N
CRP positively affected by treatment method (CRP): Y

B1: Certolizumab pegol (antibody, chains of the INN, looked up, V domains shown)
VH: EVQLVESGGGLVQPGGSLRLSCAASGYVFTDYGMNWVRQAPGKGLEWMGWINTYIGEPIYADSVKGRFTFSLDTSKSTAYLQMNSLRAEDTAVYYCARGYRSYAMDYWGQGTLVTVSS
VL: DIQMTQSPSSLSASVGDRVTITCKASQNVGTNVAWYQQKPGKAPKALIYSASFLYSGVPYRFSGSGSGTDFTLTISSLQPEDFATYYCQQYNIYPLTFGQGTKVEIK
modifications: Fab' PEG
Treatment Outcome [1, 6]: (after failing

B2: TNF (CIMZIA) (antibody, chains of the INN, looked up, V domains shown)
VH: B1 VH
VL: B1 VL
modifications: Fab' PEG
Treatment effectiveness (reason for discontinuation / earlier trial) [3]: without success
